Entries after “also recorded” stand apart in the source; their conditions may differ. Non-standard residues stand in square brackets, D forms with d. Residues, ends and D or L forms follow the SMILES beside them. *: point of attachment. Dolaproine = CO[C@@H]([C@@H]1CCCN1)[C@@H](C)C(=O)O; Dil = CC[C@H](C)[C@H](NC)[C@@H](CC(=O)O)OC; X1 = C[C@@H](N*)[C@@H](O)c1ccccc1; NMeV = CN[C@H](C(=O)O)C(C)C

From US10596259B2, “Tumor radiosensitization with monomethyl auristatin E (MMAE) and derivatives thereof” (The Regents of the University of California, priority 2015, dated 2020) come the findings set out here.

In experiment [1] the test system is HCT-116 cells. Put plainly: Cell cycle analysis by FACS with PI staining. It counts as cell-based, Human. As for the experimental part: (§1) Cells were treated with 0, 1, 2, or 5 nM MMAE for 24 hours and then fixed in methanol. Cells were treated with RNAse, stained with propidium iodide and analyzed by FACS using FloJo software.
(§2) Cells were treated with MMAE for 24 hours and then fixed in methanol. Cells were treated with RNAse, stained with propidium iodide (PI), and analyzed by FACS using FlowJo software.

The test system of experiment [2] is PANC-1 cells. Put plainly: Cell cycle analysis by FACS with PI staining. The format is cell-based, Human. The conditions noted are these: 2 nmol/L MMAE, 24 hours. As to the method: as §1, §2
Background: Flow cytometry measures light scatter and fluorescence of single cells or particles in a stream.

The subject of experiment [3] is HCT-116 cells. Put plainly: γH2Ax immunostaining (foci formation). It counts as cell-based, Human. As for the experimental part: (§3) Cells were grown on glass cover slips were treated with indicated concentrations of MMAE overnight and then irradiated. Two hours post IR, cells were fixed in 4% paraformaldehyde. Samples were then permeabilized in 0.25% Triton X-100, blocked in 1% BSA, incubated with antibody to γH2Ax for 1 hr at room temperature, washed, and incubated in secondary antibody for 1 hour at room temperature. Samples were incubated for 1 minute in a 1:5000 dilution of DAPI to label nuclei. The number of foci per cell was counted. 6-8 high power fields were counted per each group.
(§4) Cells grown on glass coverslips were treated with MMAE overnight and then irradiated. Two hours after IR, cells were fixed, permeabilized, and stained with antibody to […]. Nuclei were stained with 4′,6-diamidino-2-phenylindole (DAPI). Foci were counted in 6 to 8 high-power fields per group.

The subject of experiment [4] is PANC-1 cells. Put plainly: γH2Ax immunostaining (foci formation). The format is cell-based, Human. As for the experimental part:
as §3, §4

The subject of experiment [5] is CHK1 (pS345). Put plainly: Immunoblot for DNA damage checkpoint activation in HCT-116 cells. The note with it: MMAE 24 hours, then 6 Gy. It counts as cell-based, Human. As for the experimental part: (§5) MMAE- and IR-treated cells were harvested and lysed in RIPA buffer with protease and phosphatase inhibitors (Roche). Thirty micrograms of lysate underwent electrophoresis using 4% to 12% Bis-Tris gels (Life Technologies), transferred to polyvinylidene difluoride (PVDF) membranes, and incubated with indicated primary antibodies (Cell Signaling Technology). Blots were developed by ECL (Pierce).
Because MMAE reduced clonogenic cell survival following IR, we tested whether MMAE increased apoptosis in irradiated cells. HCT-116 cells were treated with MMAE for 24 hours followed by IR. Cells were collected 24 hours after IR and the sub-G1 population (apoptotic) was measured. […] Because MMAE increased DNA double-strand breaks in irradiated cells (FIG. 34), we then evaluated whether MMAE altered the DNA damage response in irradiated cells. HCT-116 cells were treated with MMAE for 24 hours followed by 6 Gy. Cells were collected 1 hour after IR, and activation of the DNA damage checkpoint proteins CHK1 (pS345) and CHK2 (pT68) was ascertained (FIG. 36B). […] Upon DNA damage, histone H2A becomes phosphorylated at S139, γH2AX.

In experiment [6] the test system is cyclin B. Put plainly: Immunoblot for cell phase-specific cyclins in HCT-116 cells. It counts as cell-based, Human. The note with it: 5 nmol/L MMAE, 24-hour exposure. As for the experimental part: as §5
Because MMAE blocks cells in the radiosensitive G2-M phase of the cell cycle, we tested whether MMAE specifically interacted with IR. We hypothesized that while a short exposure to MMAE would not influence radiosensitivity, prolonged MMAE exposure with cells accumulating in G2-M would increase sensitivity to IR. DNA double-stand breaks are a hallmark of IR damage and can be measured by neutral comet assay. HCT-116 cells were treated with 5 nmol/L MMAE for varying lengths of time (0, 2, 4, or 24 hours) and then irradiated (FIG. 34A).
Background: In western blotting, separated proteins are transferred to a membrane and probed.

The test system of experiment [7] is CAL-27 tumor xenografts. Put plainly: In vivo tumor xenograft growth with or without IR. More on the design: species or system mice. The conditions noted are these: day 0 iv: 0.5 nmoles antibody or 2 nmoles free MMAE; no IR. As to the method:
CAL-27 tumor xenografts were established and tumor growth was measured with digital calipers. Tumor volume was calculated using the formula as ½*Length*Width^2. Mice were randomized into groups once the average tumor volume reached >150 mm^3. Mice were assigned to indicated groups in the Results. […] Free MMAE was injected on an equimolar basis to ACPP-cRGD-MMAE in final volume of 3% DMSO. MMAE doses and IR fractionation are as indicated in the Results.

Turning to `CC[C@H](C)[C@@H]([C@@H](CC(=O)N1CCC[C@H]1[C@H](OC)[C@@H](C)C(=O)N[C@H](C)[C@@H](O)c1ccccc1)OC)N(C)C(=O)[C@@H](NC(=O)[C@@H](NC)C(C)C)C(C)C` [MMAE, monomethyl auristatin E] (H-[NMeV]V[Dil][Dolaproine]-X1), the cell-cycle profile entry in experiment [1] (1 nmol/L MMAE, 24 hours) is recorded as “did not alter the cell-cycle profile”. Also, the “cells blocked in G2/M” value in experiment [1] (5 nM (5 nmol/L) MMAE, 24 hrs) turned out to be 50%. Further, in experiment [2], the “cells blocked in G2-M” value is on record as 50%. Besides, the “γH2AX foci formation vs IR alone” value is reported as “also seen in HCT-116 cells; also recorded: significantly increased” in experiment [3] (MMAE pre-treatment, then IR) and “further significant enhancement; also recorded: significantly increased” in experiment [4] (MMAE pre-treatment, then IR). In addition, in experiment [3] (nonirradiated cells), the “DNA damage (γH2AX)” value is listed as “did not alter DNA damage”. Besides, the “γH2AX staining vs vehicle” value in experiment [4] (non-irradiated cells) is “did not significantly increase; also recorded: did not alter DNA damage”. Further, the “CHK1 activation in irradiated cells” value in experiment [5] is on record as “enhanced CHK1 activation”. The accumulation of cyclins entry in experiment [6] is on record as “specific accumulation of the G2-M cyclin B”. Besides, the “tumor growth, non-irradiated tumors” value in experiment [7] is “delayed tumor growth”.
